Data reported in the supplement of paper PMC13380429.

Key:
Settings in all cases: 72 h
Caco-2 [1] = test: drug sensitivity score (DSS) for viability; higher = more toxic; extreme values may be limits of the assay
HepG2 [2] = test: as above
Calu-3 [3] = test: as above
U2OS [4] = test: as above
Vero E6 [5] = test: as above
Caco-2 [6] = test: relative viability EC50 (midpoint between 100% and the lowest measured viability); higher = less toxic
HepG2 [7] = test: as above
Calu-3 [8] = test: as above
U2OS [9] = test: as above
Vero E6 [10] = test: as above
Caco-2 [11] = test: cell viability relative to DMSO; higher = less toxic
HepG2 [12] = test: as above
Calu-3 [13] = test: as above
U2OS [14] = test: as above
Vero E6 [15] = test: as above

Structure (SMILES)	drug sensitivity score (Caco-2 [1])	drug sensitivity score (HepG2 [2])	drug sensitivity score (Calu-3 [3])	drug sensitivity score (U2OS [4])	drug sensitivity score (Vero E6 [5])	relative viability EC50 (Caco-2 [6]) [µM]	relative viability EC50 (HepG2 [7]) [µM]	relative viability EC50 (Calu-3 [8]) [µM]	relative viability EC50 (U2OS [9]) [µM]	relative viability EC50 (Vero E6 [10]) [µM]	cell viability (Caco-2 [11]; 1 nM) [%]	cell viability (Caco-2 [11]; 10 nM) [%]	cell viability (Caco-2 [11]; 100 nM) [%]	cell viability (Caco-2 [11]; 1000 nM) [%]	cell viability (Caco-2 [11]; 10000 nM) [%]	cell viability (HepG2 [12]; 1 nM) [%]	cell viability (HepG2 [12]; 10 nM) [%]	cell viability (HepG2 [12]; 100 nM) [%]	cell viability (HepG2 [12]; 1000 nM) [%]	cell viability (HepG2 [12]; 10000 nM) [%]	cell viability (Calu-3 [13]; 1 nM) [%]	cell viability (Calu-3 [13]; 10 nM) [%]	cell viability (Calu-3 [13]; 100 nM) [%]	cell viability (Calu-3 [13]; 1000 nM) [%]	cell viability (Calu-3 [13]; 10000 nM) [%]	cell viability (U2OS [14]; 1 nM) [%]	cell viability (U2OS [14]; 10 nM) [%]	cell viability (U2OS [14]; 100 nM) [%]	cell viability (U2OS [14]; 1000 nM) [%]	cell viability (U2OS [14]; 10000 nM) [%]	cell viability (Vero E6 [15]; 1 nM) [%]	cell viability (Vero E6 [15]; 10 nM) [%]	cell viability (Vero E6 [15]; 100 nM) [%]	cell viability (Vero E6 [15]; 1000 nM) [%]	cell viability (Vero E6 [15]; 10000 nM) [%]
CC[C@@]1(O)C(=O)OCc2c1cc1n(c2=O)Cc2cc3ccccc3nc2-1 [camptothecin]	21.3	28.8	17.1	11.3	15.9	0.0939	0.027	0.159	0.891	0.324	100	87.6	56.4	9.4	25.5	87.8	63.4	36.7	6	1.4	97.9	88.4	59.8	40.4	14.2	95.8	101	86.5	52	3.7	94.9	96.4	68.7	37.4	4
Cc1cc(=O)oc2c(C=O)c(O)ccc12 [4-mu-8C]	0	0.6	0	0	0	> 10	> 10	> 10	> 10	> 10	98	95.5	101	104	87.1	106	106	111	87.4	89.3	102	92.7	118	110	97.9	107	101	97.8	100	99	97.6	104	102	102	100
CN[C@H]1C(=O)N[C@@H]2Cc3ccc(cc3)Oc3cc4cc(c3O[C@@H]3O[C@H](C(=O)O)[C@@H](O)[C@H](O)[C@H]3NC(=O)CCCCCCCCC(C)C)Oc3ccc(cc3Cl)[C@@H](O)[C@@H]3NC(=O)[C@H](NC(=O)[C@@H]4NC(=O)[C@@H](NC2=O)c2cc(cc(O)c2Cl)Oc2cc1ccc2O)c1ccc(O)c(c1)-c1c(O[C@H]2O[C@H](CO)[C@@H](O)[C@H](O)[C@@H]2O)cc(O)cc1[C@@H](C(=O)NCCCN(C)C)NC3=O [dalbavancin]	0	0	0	0	0	> 10	> 10	> 10	> 10	> 10	89.3	106	92.6	111	90.1	88.7	94.3	118	91.4	116	95.2	102	95.2	103	95	99.1	100	96.9	98	95.8	111	114	109	87.3	102
NC(=O)c1cn(Cc2c(F)cccc2F)nn1 [rufinamide]	0	0	0	0	0	> 10	> 10	> 10	> 10	> 10	111	97.4	93.3	97.1	104	109	102	94.1	101	97.4	101	97.7	99.1	101	100	99.6	100	101	98	104	101	101	101	97.9	103
CN1CCN(c2ccc(-c3cccc(CN4CCOCC4)c3)cc2NC(=O)c2c[nH]c(=O)cc2C(F)(F)F)CC1 [OICR-9429]	0	0	0	0	0	> 10	> 10	> 10	> 10	> 10	106	97.7	94.1	92	98.2	108	98.7	99.7	95.8	95	97	108	98	104	88.3	102	98.2	99.2	97.4	100	99.1	101	98	100	95.1
CCN(CCNC(=O)Nc1ccccc1Br)c1cccc(C)c1	0	0	0	0	0	> 10	> 10	> 10	> 10	> 10	92.4	102	93.1	102	90.5	95.1	101	90.8	99.6	96.5	93.6	96.3	93.7	91.3	101	98.9	103	97	99.5	93.5	108	114	105	120	97.8
Cc1nc(C)c(Cl)c(O)c1Cl [clopidol]	0	0	0	0	0	> 10	> 10	> 10	> 10	> 10	96.9	100	94.1	99.2	92.7	100	99.9	104	99.2	116	105	94.2	93.6	101	102	98.3	96.2	92.4	97.7	92.5	96.9	95.9	101	96.6	95.2
CCCCNc1c(C(=O)OCC)c(C)nc2c1cnn2CC [tracazolate]	0	0	0.1	0	0	> 10	> 10	> 10	> 10	> 10	93.3	96.1	97.2	92.7	101	97.6	104	92.5	106	99.3	101	85.1	98.6	102	86.4	101	93.2	102	97.7	93.6	93	97.7	96.9	96.7	96.5
CC(C)(C)C(=O)Oc1ccc(S(=O)(=O)Nc2ccccc2C(=O)NCC(=O)O)cc1 [sivelestat]	0	0	0	0	0	> 10	> 10	> 10	> 10	> 10	91	97	94.1	93.5	91.3	101	92.6	103	90	98.3	97.2	96.1	90.5	103	109	98.5	100	96.2	101	96.5	107	96.5	104	98.8	100
CC1(C)Cc2c(-c3ccccc3)c(-c3ccc(Cl)cc3)c(CC(=O)O)n2C1 [licofelone]	0.1	0	0	0	0	> 10	> 10	> 10	> 10	> 10	94.8	94.9	87.5	96.9	85.3	110	102	95.4	101	93.1	104	101	100	96	95	101	101	97.5	102	90.9	102	102	102	107	99.5
Cc1nc2c([nH]1)-c1ccccc1N(C(=O)c1ccc(NC(=O)c3ccccc3-c3ccccc3)cc1)CC2 [conivaptan]	0	0	0	0	0	> 10	> 10	> 10	> 10	> 10	97.5	94.3	91.2	102	91.7	97.9	97.1	101	93.6	101	102	106	105	94.1	96.6	101	103	96.3	104	97.6	97.9	100	97.3	89.4	100
CCOC(=O)c1ccc(-c2ccc(OC(=O)N(C)Cc3cccc(-c4ccncc4)c3)cc2)cc1 [WWL-113]	0	2.9	0	0	0	> 10	3.7	> 10	> 10	> 10	97.4	102	105	96.5	92.8	100	106	96.5	107	38.1	108	93.6	108	99.1	106	104	97.3	98.9	95.9	97.8	94.7	98.4	92.5	99.6	91.4
Nc1ccc(S(=O)(=O)NC(=O)c2ccccc2)cc1 [sulfabenzamide]	0	0	0	0	0	> 10	> 10	> 10	> 10	> 10	92.3	104	100	100	108	109	102	99	103	109	109	101	96.8	106	106	94.7	93.9	102	98.1	103	97.4	95.4	92.1	96.7	105
Nc1cccc2c1C(=O)N(C1CCC(=O)NC1=O)C2=O (stereo not given) [pomalidomide]	0	0	0	0	0	> 10	> 10	> 10	> 10	> 10	86	85	103	95	98.3	104	104	98.5	101	111	106	103	103	105	90.9	99	97.3	104	96.1	98.4	93.5	97.1	89.2	99.4	103
